Experimental data from ChEMBL document CHEMBL5331103, “Discovery of novel 2-hydroxyl-4-benzyloxybenzyl aniline derivatives as potential multifunctional agents for the treatment of Parkinson's disease” (Eur J Med Chem, 2023).
Blank lines part the entries; values can stand above or below the molecule they belong to. Active and inactive are the calls of the source. No cut-off for these calls is given here.

How the values were obtained:
[1] = molecular target: T1, Amine oxidase [flavin-containing] A (Homo sapiens, UniProt P21397); test: Inhibition of MAO-A (unknown origin) using kynuramine as substrate at 10 uM preincubated for 30 mins followed by substrate addition and measured after 30 mins by fluorescence based analysis relative to control; conditions: 0.5 h, time 60 min
T1 sequence (P21397 whole entry): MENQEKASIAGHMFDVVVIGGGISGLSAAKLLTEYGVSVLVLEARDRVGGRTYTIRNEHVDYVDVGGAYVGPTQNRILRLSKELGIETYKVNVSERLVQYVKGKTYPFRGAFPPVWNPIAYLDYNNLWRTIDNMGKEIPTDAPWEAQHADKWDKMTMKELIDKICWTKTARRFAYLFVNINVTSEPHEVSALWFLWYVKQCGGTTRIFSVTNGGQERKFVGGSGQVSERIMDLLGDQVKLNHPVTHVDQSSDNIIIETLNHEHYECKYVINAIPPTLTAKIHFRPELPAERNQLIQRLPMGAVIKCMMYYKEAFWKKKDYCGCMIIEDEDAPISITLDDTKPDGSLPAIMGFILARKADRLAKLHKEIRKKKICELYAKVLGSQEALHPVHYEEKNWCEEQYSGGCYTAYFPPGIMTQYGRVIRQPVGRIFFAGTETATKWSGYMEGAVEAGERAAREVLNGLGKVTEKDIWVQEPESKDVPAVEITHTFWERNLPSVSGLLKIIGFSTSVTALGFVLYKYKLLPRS

[2] = molecular target: T2, Amine oxidase [flavin-containing] B (Homo sapiens, UniProt P27338)
T2 sequence (P27338 whole entry): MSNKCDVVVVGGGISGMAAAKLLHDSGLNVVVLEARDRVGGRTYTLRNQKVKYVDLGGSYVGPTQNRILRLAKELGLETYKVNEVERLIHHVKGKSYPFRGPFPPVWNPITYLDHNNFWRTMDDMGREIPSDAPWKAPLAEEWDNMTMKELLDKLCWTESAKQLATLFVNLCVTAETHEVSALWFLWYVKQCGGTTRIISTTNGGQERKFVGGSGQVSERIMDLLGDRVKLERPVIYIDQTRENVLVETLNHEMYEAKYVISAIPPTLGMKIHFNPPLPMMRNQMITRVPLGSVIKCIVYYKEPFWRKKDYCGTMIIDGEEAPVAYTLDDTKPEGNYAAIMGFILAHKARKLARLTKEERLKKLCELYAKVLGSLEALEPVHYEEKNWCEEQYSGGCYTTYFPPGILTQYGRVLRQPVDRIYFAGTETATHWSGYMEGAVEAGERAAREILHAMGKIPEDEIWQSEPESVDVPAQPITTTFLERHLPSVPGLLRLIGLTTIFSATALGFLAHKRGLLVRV
Description: Inhibition of MAO-B (unknown origin) using kynuramine as substrate preincubated for 30 mins followed by substrate addition and measured after 30 mins by fluorescence based analysis

BV-2 [3] = test: Anti-neuroinflammatory activity in mouse BV-2 cells assessed as inhibition of LPS-induced NO production at 2.5 uM preincubated for 30 mins followed by LPS stimulation and measured after 24 hrs by Griess reagent based assay relative to control; assay type: functional; conditions: time 24.5 hrs
[4] = Metal chelating activity assessed as Cu2+-compound complex formation by measuring increase in absorbance incubated for 2 hrs in the presence of CuCl2 by UV-Vis spectra analysis
[5] = Metal chelating activity assessed as Fe2+-compound complex formation by measuring increase in absorbance incubated for 2 hrs in the presence of FeSO4 by UV-Vis spectra analysis
Mus musculus [6] = test: Anti-parkinson's disease activity in MPTP-induced C57BL/6C mouse model assessed as increase in traction test score at 53.5 mg/kg, IG preadministered with MPTP for 5 days followed by compound administration for 3 weeks and measured 1 hrs post last dose by traction test; assay type: functional, organism-based
Mus musculus [7] = test: In vivo inhibition of MAO-B in MPTP-induced C57BL/6C parkinson's mouse model assessed as increase in DA level in corpus striatum at 53.5 mg/kg, IG preadministered with MPTP for 5 days followed by compound administration for 3 weeks and measured 1 hrs post last dose by HPLC-ECD method; assay type: functional, organism-based
PC-12 [8] = test: Neuroprotective activity against H2O2-induced cell damage in rat PC-12 cells assessed as increase in cell viability at 10 uM preincubated for 2 hrs followed by H2O2 addition and measured after 24 hrs by MTT assay (reference value: 50.3%); assay type: functional; conditions: time 26 hrs
Mus musculus [9] = test: Anti-parkinson's disease activity in MPTP-induced C57BL/6C mouse model assessed as decrease in MDA level in corpus striatum at 53.5 mg/kg, IG preadministered with MPTP for 5 days followed by compound administration for 3 weeks and measured 1 hrs post last dose by HPLC-ECD method; assay type: functional, organism-based
Mus musculus [10] = test: Anti-parkinson's disease activity in MPTP-induced C57BL/6C mouse model assessed as reduction in time required to turn the head to 180 degree at 53.5 mg/kg, IG preadministered with MPTP for 5 days followed by compound administration for 3 weeks and measured 1 hrs post last dose by pole test; assay type: functional, organism-based
[11] = Permeability of the compound in porcine brain incubated for 18 hrs by PAMPA-BBB assay; assay type: ADME, Sus scrofa; conditions: pig, read-out: permeability
BV-2 [12] = test: Anti-neuroinflammatory activity in mouse BV-2 cells assessed as inhibition of LPS-induced NO production at 0.5 uM preincubated for 30 mins followed by LPS stimulation and measured after 24 hrs by Griess reagent based assay relative to control; assay type: functional; conditions: time 24.5 hrs
BV-2 [13] = test: Inhibition of LPS-induced NFkappaB activation in mouse BV-2 cells assessed as reduction in IkappaBalpha phosphorylation at 1 to 10 uM preincubated for 30 mins followed by LPS-stimulation and measured after 16 hrs by Western blot analysis; assay type: cell-based; conditions: dose 1-10 µM, time 16.5 hrs
Mus musculus [14] = test: Anti-parkinson's disease activity in MPTP-induced C57BL/6C mouse model assessed as reduction in total time required to reach the bottom of pole at 53.5 mg/kg, IG preadministered with MPTP for 5 days followed by compound administration for 3 weeks and measured 1 hrs post last dose by pole test; assay type: functional, organism-based
PC-12 [15] = test: Neuroprotective activity against H2O2-induced cell damage in rat PC-12 cells assessed as increase in cell viability at 2.5 uM preincubated for 2 hrs followed by H2O2 addition and measured after 24 hrs by MTT assay (reference value: 50.3%); assay type: functional; conditions: time 26 hrs
BV-2 [16] = test: Inhibition of LPS-induced ROS production in mouse BV-2 cells at 2.5 uM preincubated for 30 mins followed by LPS-stimulation and measured after 30 mins by DCFH-DA based fluorescence microplate reader analysis relative to control; assay type: functional; conditions: BV-2, 1 h, time 60 min
Mus musculus [17] = test: Anti-parkinson's disease activity in MPTP-induced C57BL/6C mouse model assessed as reduction in beam walking test time at 53.5 mg/kg, IG preadministered with MPTP for 5 days followed by compound administration for 3 weeks and measured 1 hrs post last dose by beam-walking test; assay type: functional, organism-based
BV-2 [18] = test: Inhibition of LPS-induced ROS production in mouse BV-2 cells at 10 uM preincubated for 30 mins followed by LPS-stimulation and measured after 30 mins by DCFH-DA based fluorescence microplate reader analysis relative to control; assay type: functional; conditions: BV-2, 1 h, time 60 min
[19] = Metal chelating activity assessed as Fe2+-compound complex formation by measuring red shift incubated for 2 hrs in the presence of FeSO4 by UV-Vis spectra analysis
[20] = Metal chelating activity assessed as Fe2+-compound complex formation by measuring increase in absorbance incubated for 2 hrs in the presence of FeSO4 at 30 to 900 uM by UV-Vis spectra analysis
BV-2 [21] = test: Anti-neuroinflammatory activity in mouse BV-2 cells assessed as inhibition of LPS-induced TNF-alpha production preincubated for 30 mins followed by LPS stimulation and measured after 24 hrs by ELISA analysis; assay type: functional, cell-based; conditions: dose 0.5-10 µM, time 24.5 hrs
PC-12 [22] = test: Cytotoxicity against rat PC-12 cells assessed as reduction in cell viability upto 50 uM incubated for 2 hrs by MTT assay; assay type: toxicity, cell-based; conditions: pc-12, 2 h
[23] = Metal chelating activity assessed as Al3+-compound complex formation by measuring increase in absorbance incubated for 2 hrs in the presence of AlCl3 by UV-Vis spectra analysis
[24] = molecular target: T2, Amine oxidase [flavin-containing] B; test: Competitive inhibition of MAO-B (unknown origin) using kynuramine as substrate assessed as […] at 0.007 to 0.028 uM by Lineweaver-Burk plot analysis; conditions: dose 0.007-0.028 µM
BV-2 [25] = test: Anti-neuroinflammatory activity in mouse BV-2 cells assessed as inhibition of LPS-induced NO production at 10 uM preincubated for 30 mins followed by LPS stimulation and measured after 24 hrs by Griess reagent based assay relative to control; assay type: functional; conditions: time 24.5 hrs
[26] = molecular target: T2, Amine oxidase [flavin-containing] B; test: Competitive inhibition of MAO-B (unknown origin) using kynuramine as substrate assessed as increase in Km at 0.007 to 0.028 uM by Lineweaver-Burk plot analysis; conditions: dose 0.007-0.028 µM
PC-12 [27] = test: Neuroprotective activity against H2O2-induced cell damage in rat PC-12 cells assessed as increase in cell viability at 50 uM preincubated for 2 hrs followed by H2O2 addition and measured after 24 hrs by MTT assay (reference value: 50.3%); assay type: functional; conditions: time 26 hrs
[28] = Metal chelating activity assessed as Zn2+-compound complex formation by measuring increase in absorbance incubated for 2 hrs in the presence of ZnCl2 by UV-Vis spectra analysis
[29] = Metal chelating activity assessed as Fe3+-compound complex formation by measuring increase in absorbance incubated for 2 hrs in the presence of FeCl3 by UV-Vis spectra analysis
BV-2 [30] = test: Inhibition of LPS-induced NFkappaB activation in mouse BV-2 cells assessed as inhibition of p65 translocation to nucleus at 1 to 10 uM preincubated for 30 mins followed by LPS-stimulation and measured after 16 hrs by Western blot analysis; assay type: cell-based; conditions: dose 1-10 µM, time 16.5 hrs
[31] = molecular target: T2, Amine oxidase [flavin-containing] B; test: Competitive inhibition of MAO-B (unknown origin) using kynuramine as substrate assessed as inhibition constant by Lineweaver-Burk plot analysis
BV-2 [32] = test: Anti-neuroinflammatory activity in mouse BV-2 cells assessed as inhibition of LPS-induced TNF-alpha production at 10 uM preincubated for 30 mins followed by LPS stimulation and measured after 24 hrs by ELISA analysis relative to control; assay type: functional; conditions: time 24.5 hrs
BV-2 [33] = test: Cytotoxicity against mouse BV-2 cells assessed as reduction in cell viability upto 10 uM incubated for 30 mins by MTT assay; assay type: toxicity, cell-based; conditions: bv-2, 0.5 h
PC-12 [34] = test: Cytotoxicity against rat PC-12 cells assessed as reduction in cell viability at 10 uM incubated for 2 hrs by MTT assay; assay type: toxicity, cell-based; conditions: pc-12, 2 h

SMILES: Oc1cc(OCc2ccccc2Cl)ccc1CNc1ccccc1
inhibition at 10 µM [1]: 10.3% | IC50 [2]: 423 nM

SMILES: Oc1ccc(/C=C/c2cc(O)cc(O)c2)cc1 [RESVERATROL]
Activity (PC-12 [8]): 63.6% | Activity (PC-12 [34]): Non-Toxic | inhibition at 10 µM (BV-2 [18]): 56.7% | inhibition at 10 µM (BV-2 [25]): 51.8% | inhibition at 10 µM (BV-2 [32]): 52.2% | Activity (BV-2 [33]): Non-Toxic

SMILES: Oc1cc(OCc2ccccc2)ccc1CNc1ccccc1
inhibition at 10 µM [1]: 14.7% | IC50 [2]: 481 nM

SMILES: Cc1ccc(COc2ccc(CNc3ccccc3)c(O)c2)cc1
inhibition at 10 µM [1]: 26.4% | IC50 [2]: 366 nM

SMILES: CC(C)(C)c1ccc(COc2ccc(CNc3ccccc3)c(O)c2)cc1
inhibition at 10 µM [1]: < 5% | IC50 [2]: 435 nM

The next lines start with results.

inhibition at 10 µM [1]: 20.5% | IC50 [2]: 249 nM
SMILES: Oc1cc(OCc2cccc(Cl)c2)ccc1CNc1ccccc1

Activity [4]: Active | inhibition at 10 µM [1]: 43.7% | Activity [5]: Active | Papp at 18 h [11]: 8.62 ×10⁻⁶ cm/s | Activity [19]: Active | Activity [20]: Active | Activity [23]: Active | inhibition (INH) [24]: Active | inhibition (INH) [26]: Active | Activity [28]: Active | Activity [29]: Active | Ki [31]: 18 nM | IC50 [2]: 14 nM
SMILES: Oc1cc(OCc2ccc(F)cc2)ccc1CNc1ccccc1
inhibition at 2.5 µM (BV-2 [3]): 28% | Activity (Mus musculus [6]): Active | inhibition (Mus musculus [7]): Active | Activity (PC-12 [8]): 69.6% | Activity (Mus musculus [9]): Active | Activity (Mus musculus [10]): Active | inhibition at 0.5 µM (BV-2 [12]): 13.5% | inhibition (BV-2 [13]): Active | Activity (Mus musculus [14]): Active | Activity (PC-12 [15]): 59.8% | inhibition at 2.5 µM (BV-2 [16]): 21.2% | Activity (Mus musculus [17]): Active | inhibition at 10 µM (BV-2 [18]): 99% | Activity (BV-2 [21]): Dose-Dependent Effect | Activity (PC-12 [22]): Non-Toxic | inhibition at 10 µM (BV-2 [25]): 76.1% | Activity (PC-12 [27]): 77.2% | inhibition (BV-2 [30]): Active | inhibition at 10 µM (BV-2 [32]): 63.9% | Activity (BV-2 [33]): Non-Toxic

inhibition at 10 µM [1]: 30.6% | IC50 [2]: 85 nM
SMILES: O=[N+]([O-])c1ccc(COc2ccc(CNc3ccccc3)c(O)c2)cc1

inhibition at 10 µM [1]: 52.5% | IC50 [2]: 49 nM
SMILES: Oc1cc(OCc2ccc(Cl)c(Cl)c2)ccc1CNc1ccccc1

inhibition at 10 µM [1]: 11.8% | IC50 [2]: 95 nM
SMILES: Oc1cc(OCc2cccc(F)c2)ccc1CNc1ccccc1
